# Laboratory results from patent US6733782B1, “Core tablet for controlled release of gliclazide after oral administration” (Les Laboratories Servier, priority 1999, dated 2004).
# Test: solubility of the active ingredient according to pH (FIG. 1)
# Assay type: physicochemical
# Settings: at acid pHs; increases as pH rises (FIG. 1)
# Source text: The main aim of the invention was to obtain an oral form in which the rate of release of the active ingredient is controlled and reproducible. In fact, in the current form the dissolution of the active ingredient varies greatly according to pH. This characteristic, associated with gliclazide itself, poses absorption problems for the active ingredient. The solubility is very weak at acid pHs and increases as pH rises.
# FIG. 1 represents the phenomenon of the solubility of the active ingredient varying according to pH.
compound,measurement,value
"Cc1ccc(S(=O)(=O)NC(=O)NN2CC3CCCC3C2)cc1 (stereo not shown) [gliclazide, Gliclazide]",solubility of the active ingredient,very weak
